Data on three compounds can be found in patent publication US20170327789A1, “Modulation of Dopamine Receptor to Promote Neural Cell Differentiation” (The Hospital for Sick Children, priority 2014, published 2017).

One assay concerns human fetal NSC (hf5205). The assay can be described thus: Immunocytochemistry for Vglut1 after 3 weeks differentiation. Conditions: 2-step growth withdrawal. Type of assay: cell-based. On the procedure: Antibodies included: Beta-III tubulin (1:100 MAB1637), GFAP (1:1000, DAKO), Vglut1 (1:1000, Synaptic system), GABA (1:1000, Sigma). Appropriate fluorescent-conjugated secondary antibodies were used at 1:500 for 1 h at room temperature. Coverslips were mounted with fluorescent mounting medium (DAKO) containing DAPI (1:1000) and cells were imaged using Leica microscope. Hit validation for differentation. All retests for differentiation were done by a two step growth withdrawal method (as described in Sun et al. Mol. Cell. Neurosci. 38(2008) 245-258) with and without the test compound for 8 days. […] Immunocytochemistry was performed for a series of antibodies marking different classes of neurons based on their neurotransmitters including glutamatergic, dopaminergic, cholinergic and serotonergic. […] Vglut1 is a vesicular glutamate transporter required for transport of glutamate into synaptic vesicles of glutamatergic neurons.

Assay [1] relates to human fetal NSC. The assay can be described thus: RT-qPCR gene expression of neuronal lineage and cortical layer markers in differentiated cells. Type of assay: cell-based. On the procedure: Hit validation for differentation. All retests for differentiation were done by a two step growth withdrawal method (as described in Sun et al. Mol. Cell. Neurosci. 38(2008) 245-258) with and without the test compound for 8 days. Test compounds included L-741,742 (3 μM), PNU96415E (15 μM), Ifenprodil tartrate (1.5 μM), McN A-343 (4 μM), and (−) —N-Phenylcarbamoyleseroline (6 μM). For mature neuronal marker analysis, human fetal NSC were differentiated for 3 weeks using L-741,742 (2-4 μM varying at different stages) in the two step growth withdrawal method.
The differentiated cells were further tested for gene expression of different neuronal lineage markers by RT-qPCR. A series of primers were designed for markers representing both neurotransmitters and domain specific regions as shown in Table 1.
L-741,742-differentiated neurons show cortical layer V marker. L-741,742-differentiated cells show increased expression of VGLUT1 and NEUROG2. NEUROG2 expression is required for promoting excitatory neurons in the dorsal cortical region during development. To test if L-741,742 promotes or specifies specific cortical layer neurons, a series of primers were designed to mark all layers of cortex; Reelin (layer 1), Tbr1 (layer V1), Ctip2 (Layer V), Satb2 (Layer II-III) and Foxg1 (telenchepalic marker) (Table 1). The expression of these markers in L-741,742-differentiated cells was determined by RT-qPCR. […] Thus, L-741,742-differentiated neurons express cortical layer V marker CTIP2 and telencephalic marker FOXG1, with VGLUT1 expression, indicating differentiation into cortical layer neurons.

The test system of assay [2] is human fetal NSC. The assay can be described thus: GABA staining of differentiated cells, week 1-3. Type of assay: cell-based. The conditions noted are these: 2 week differentiated cells. On the procedure:
Immunocytochemistry. hfNS cells differentiated on coverslips were fixed with 4% paraformaldehyde and permeabilized with 0.3% Triton X100, block with 5% goat serum, and incubated with primary antibody overnight at 4° C. Antibodies included: Beta-III tubulin (1:100 MAB1637), GFAP (1:1000, DAKO), Vglut1 (1:1000, Synaptic system), GABA (1:1000, Sigma). Appropriate fluorescent-conjugated secondary antibodies were used at 1:500 for 1 h at room temperature. Coverslips were mounted with fluorescent mounting medium (DAKO) containing DAPI (1:1000) and cells were imaged using Leica microscope.
L-741,742-differentiated cells were also tested for GABA staining from week 1-3 and GABA positive cells were present in early in 1 week differentiated cells, showing up to 11% GABA positive neurons in 2 week differentiated cells (FIG. 5).

The next assay deals with Hf5205 cells. The assay can be described thus: Single cell qPCR (Fluidigm analysis) of differentiated cells. In kind it is cell-based, human. Conditions: 3.5 μM, three weeks. On the procedure:
Single Cell qPCR (Fluidigm Analysis). Differentiated hfNS (hf5205) at week 3 was accutased and cells were resuspended in NS medium containing 1 μg per ml of propidium iodide and filtered through a 40 μm nylon cell strainer followed by live single cell sorting into a 96 well qPCR plate on a BD cell sorter. Cells were sorted into 10 μl of preamplification mix containing 40 nM of all primers for the 48 genes, and the following components of CellsDirect One-Step qRT-PCR kit (Invitrogen) as directed in protocol: 2× reaction mix, SuperScript III RT/platinum Taq mix. After sorting, samples were reverse transcribed and preamplified for 18 cycles. Preamplified samples were diluted (2×) with TE buffer and stored at −20° C. Sample and assay primer preparation for Fluidigm Dynamic arrays was done according to the manufacturer's recommendation. Samples were mixed with 2× assay loading reagent (Fluidigm Corp), 20× EvaGreen and TaqMan gene expression master mix. The Fluidigm Dynamic arrays were primed and loaded on the IFC controller and qPCR experiments were run on a Biomark system for genetic analysis.
Fluidigm Analysis. Hf5205 cells were differentiated in the two-step growth withdrawal method, with and without L-741,742 (3.5 μM) for three weeks. The differentiated cells were harvested and filtered through a 40 uM nylon filter and live sort single cell (based on PI staining) into a 96 well qRT-PCR plate containing pre-amplification mix of 48 primers, reverse transcribed and amplified for 48 genes (as described in Pasca et al. Nature Medicine (2011) November 27; 17(12) 1657-62) in one step using a kit from Invitrogen. Samples and primer pairs were prepared for Fluidigm as per protocol. Cells were identified based on presence of RPS18 and GAPDH, Data was analyzed based on population of cells expressing particular genes using different CT value cut off.
Characterization of L-741,742-differentiated cells by Fluidigm analysis. To further characterize the different population of neurons in L-741,742 differentiated culture, a single cell Fluidigm array was employed that can perform multiple qRT-PCR (48 genes or 96 genes) at a single cell level as shown in FIG. 6. Forty eight (48) gene primers marking various cell populations were used including, early progenitor marking dorsal, ventral or midbrain, differentiated neuronal markers based on neurotransmitters GABA or glutamatergic and markers specifying different cortical layers. Primer sequences were obtained from Pasca et al. Nature Medicine (2011) November 27; 17(12) 1657-62).
A general note: Real-time PCR tracks product formation cycle by cycle.

Regarding `Cc1c(C2CCN(CCc3ccccc3)CC2)noc1-c1ccc(Cl)cc1` [L-741,742], in the assay on human fetal NSC (hf5205), the “Vglut1-positive staining indicating differentiation into glutamatergic neurons” value is “Vglut1-positive staining”. In the assay with human fetal NSC [1] (at the concentration tested), the Reelin expression entry is given as “not detectable” and the Tbr1 expression result is on record as “not detectable”. In the assay with human fetal NSC [1] (compared to the control), the “increase in NEUROG2 expression” value was 11 fold and the “increase in VGLUT1 expression” value is on record as 15-35 fold. Also, the “increase in CTIP2 expression” value in the assay on human fetal NSC [1] (cortical layer V marker) is given as “approximately 23 fold”. In addition, the “increase in FOXG1 expression” value with human fetal NSC [1] (telencephalic marker) is approximately 27 fold. Further, the GABA positive neurons entry in the assay on human fetal NSC [2] is on record as “up to 11%”. Also, in the assay on Hf5205 cells, the “expression of CAMKII (marking glutamatergic neurons)” value is “increase”, the “expression of EVT1 (marking lower cortical layer V)” value is “increase”, the “expression of MAP2 (marking neurons)” value is “increase” and the “expression of VGLUT1 (marking glutamatergic neurons)” value was “increase”. In the assay with Hf5205 cells, the “expression of VGLUT2 (marking glutamatergic neurons)” value was “increase” and the “expression of VGLUT3 (marking glutamatergic neurons)” value was “increase”.
With `Cl.Cl.Fc1ccc(N2CCN(CCC3OCCc4ccccc43)CC2)cc1` (stereo not shown) [PNU96415E], the “Vglut1-positive staining indicating differentiation into glutamatergic neurons” value in the assay on human fetal NSC (hf5205) is given as “Vglut1-positive staining”.
On the same count and under the same terms, the result for Ifenprodil tartrate reads “Vglut1-positive staining”.
